Experiments:
endometriosis [1] = test: clinical follow-up of about 1,000 patients treated with gestrinone implants; assay type: in vivo
Description: Research was conducted to assess the effectiveness of using the gestrinone implants described here for the treatment of endometriosis. About 1,000 patients with different degrees of the disease were followed up in clinical practice and the dose used was 1 to 3 implants. […] In these patients, treatment can be used only.

endometriosis [2] = conditions: cited from earlier work

C#C[C@]1(O)CC[C@H]2[C@@H]3CCC4=CC(=O)CCC4=C3C=C[C@@]21CC [gestrinone]
carrier protein SHBG in the patient (endometriosis [1]; mechanism of action, stated with an increase in free circulating testosterone): reduction in the carrier protein SHBG | quality of life of patients (endometriosis [1]; observed in practice: mood, libido, reasoning and decision making capacity, lean mass): improves the quality of life of patients as a whole | free circulating testosterone (endometriosis [1]; result of SHBG reduction): increase in free circulating testosterone | tolerability, oral dose (endometriosis [2]): up to 5 mg three times a week

— US20210322442A1, “LONG-TERM RE-ABSORBABLE SU[…] WITH CONTROLED PRE-CONCENTRATED PHARMACOLOGICALLY ACTIVE POLYMER SUBSTANCE RELEASE FOR TREATING ENDOMETRIOSIS” (priority 2020, published 2021)
